# Measured values published in the supplement of paper PMC11451515.
# System: SEM cells
# Assay: cell viability relative to DMSO control; higher = less cytotoxic
# Conditions: 48 h
# In short: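 Viability values are per-plate percentages of DMSO wells, with background from cell-free wells. Library compounds in DMSO were pin-dosed, in an 11-point threefold series from 47 μM to 0.79 nM, onto NOMO1 or SEM (500 cells/well) or P12-Ichikawa (1000 cells/well) leukemia cells in 1536-well plates (5 μl). Those cells had been adapted for at least four passages in each medium, and CellTiter-Glo One luminescence was read after 48 h at 37°C.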
# [1] = HPLM + 10% dialyzed FBS, 0.000781 µM
# [2] = HPLM + 10% dialyzed FBS, 0.00234 µM
# [3] = HPLM + 10% dialyzed FBS, 0.00702 µM
# [4] = HPLM + 10% dialyzed FBS, 0.0211 µM
# [5] = HPLM + 10% dialyzed FBS, 0.0632 µM
# [6] = HPLM + 10% dialyzed FBS, 0.19 µM
# [7] = HPLM + 10% dialyzed FBS, 0.569 µM
# [8] = HPLM + 10% dialyzed FBS, 1.71 µM
# [9] = HPLM + 10% dialyzed FBS, 5.12 µM
# [10] = HPLM + 10% dialyzed FBS, 15.4 µM
# [11] = HPLM + 10% dialyzed FBS, 46.1 µM
# [12] = RPMI 5 mM glucose + 10% FBS, 0.000781 µM
# [13] = RPMI 5 mM glucose + 10% FBS, 0.00234 µM
# [14] = RPMI 5 mM glucose + 10% FBS, 0.00702 µM
# [15] = RPMI 5 mM glucose + 10% FBS, 0.0211 µM
# [16] = RPMI 5 mM glucose + 10% FBS, 0.0632 µM
# [17] = RPMI 5 mM glucose + 10% FBS, 0.19 µM
# [18] = RPMI 5 mM glucose + 10% FBS, 0.569 µM
# [19] = RPMI 5 mM glucose + 10% FBS, 1.71 µM
# [20] = RPMI 5 mM glucose + 10% FBS, 5.12 µM
# [21] = RPMI 5 mM glucose + 10% FBS, 15.4 µM
# [22] = RPMI 5 mM glucose + 10% FBS, 46.1 µM
# [23] = RPMI 5 mM glucose + 10% dialyzed FBS, 0.000781 µM
# [24] = RPMI 5 mM glucose + 10% dialyzed FBS, 0.00234 µM
# [25] = RPMI 5 mM glucose + 10% dialyzed FBS, 0.00702 µM
# [26] = RPMI 5 mM glucose + 10% dialyzed FBS, 0.0211 µM
# [27] = RPMI 5 mM glucose + 10% dialyzed FBS, 0.0632 µM
# [28] = RPMI 5 mM glucose + 10% dialyzed FBS, 0.19 µM
# [29] = RPMI 5 mM glucose + 10% dialyzed FBS, 0.569 µM
# [30] = RPMI 5 mM glucose + 10% dialyzed FBS, 1.71 µM
# [31] = RPMI 5 mM glucose + 10% dialyzed FBS, 5.12 µM
# [32] = RPMI 5 mM glucose + 10% dialyzed FBS, 15.4 µM
# [33] = RPMI 5 mM glucose + 10% dialyzed FBS, 46.1 µM
Structure (SMILES),cell viability [1] [%],cell viability [2] [%],cell viability [3] [%],cell viability [4] [%],cell viability [5] [%],cell viability [6] [%],cell viability [7] [%],cell viability [8] [%],cell viability [9] [%],cell viability [10] [%],cell viability [11] [%],cell viability [12] [%],cell viability [13] [%],cell viability [14] [%],cell viability [15] [%],cell viability [16] [%],cell viability [17] [%],cell viability [18] [%],cell viability [19] [%],cell viability [20] [%],cell viability [21] [%],cell viability [22] [%],cell viability [23] [%],cell viability [24] [%],cell viability [25] [%],cell viability [26] [%],cell viability [27] [%],cell viability [28] [%],cell viability [29] [%],cell viability [30] [%],cell viability [31] [%],cell viability [32] [%],cell viability [33] [%]
CCN(CC)CCCCNc1ncc2cc(-c3cc(OC)cc(OC)c3)c(NC(=O)NC(C)(C)C)nc2n1,89.9,104,119,114,86.2,98.6,105,84,70.3,46.2,9.92,118,113,107,109,100,90.7,92.1,78.8,87,53.6,17,112,105,113,106,97.7,108,95.4,81,76.6,44.9,14.4
CCc1ccc(CCOc2ccc(CC3SC(=O)NC3=O)cc2)nc1 (stereo unspecified),120,115,112,113,124,108,42.4,117,122,119,89.6,93.5,86.9,88.1,85.9,85.6,83.4,61,94.9,87,80,80.7,112,115,111,143,129,116,68.6,137,122,122,110
CN(C)[S+](=O)([O-])c1ccc2c(c1)C(=Cc1cc3c([nH]1)CCCC3)C(=O)N2,112,115,112,114,128,129,130,116,114,85.7,111,90.5,98.6,109,103,118,113,118,113,112,78.5,94.7,116,115,127,120,120,108,132,123,113,72.9,116
FC1=CC=C(C=C1)N2/C=C\C=C(C(=O)NC3=CC=C(OC4=C5C=C[NH]C5=NC=C4)C(=C3)F)/C2=O,92.6,101,104,112,106,109,115,107,99.9,77.3,75.4,72.6,69.9,65.1,76,67.1,68.1,73,71.6,60.5,46.9,40,101,96.9,98.7,111,119,111,121,102,95.7,74.8,55.4
O=C1c2ccccc2-[n+]2ccc3c([nH]c4ccccc43)c21,91,89.3,102,77.2,70.7,73.6,68,55.8,19.6,3.74,2.58,116,109,102,92.1,78.2,92.7,85.7,59.6,32.3,3.62,2.81,92.7,98,91.9,80.2,87.4,84.9,65.4,58.1,32.6,3.56,2.5
CN1CCN(C2=Nc3cc(Cl)ccc3Nc3ccccc32)CC1,85.6,93.8,108,107,83.2,111,109,121,113,106,25.6,93,96.1,107,96.1,68.9,92.9,103,110,109,112,20.6,94.3,116,104,83.1,83.5,118,112,123,110,92,22.5
O=c1[nH]c(=O)n([C@H]2C[C@H](O)[C@@H](CO)O2)cc1/C=C/Br,92.7,116,101,120,119,119,114,100,86.4,78.7,60.2,101,121,114,109,123,105,119,117,115,119,120,90.8,117,103,98.6,106,112,116,116,111,102,82.2
